Read-outs that look alike come from different tables or passages of the source.
Tests used:
Assay type in all cases: in vivo
AMAPA = test: Pre-emergence biological efficacy (Table 3); conditions: 312 h, after 13 days, read-out: evaluation (100=total damage to plant; 0=no damage to plant)
Outline: (§1)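 Visual damage score (0 = no damage, 100 = total damage) read 13 days after spraying. Pots were sown one day earlier and held at 24/19 °C, 16 h light; the 50 g/l acetone/AMA formulation was diluted in 0.2% Genapol X080 to the final dose.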

AMARE [1] = test: Pre-emergence biological efficacy (Table 3); conditions: after 13 days; for pest or weed control at 1000 g/ha / evaluation (100=total damage to plant; 0=no damage to plant): 1000 g/ha
Outline: as §1

ECHCG = test: Pre-emergence biological efficacy (Table 3); conditions: after 13 days
Outline: as §1

IPOHE = test: Pre-emergence biological efficacy (Table 3); conditions: after 13 days; for pest or weed control at 1000 g/ha / evaluation (100=total damage to plant; 0=no damage to plant): 1000 g/ha
Outline: as §1

SETFA = test: Pre-emergence biological efficacy (Table 3); conditions: Setaria faberi, 312 h, after 13 days, read-out: evaluation (100=total damage to plant; 0=no damage to plant)
Outline: as §1

ZEAMX = test: Pre-emergence biological efficacy (Table 3); conditions: after 13 days; for plant injury at 1000 g/ha / evaluation (100=total damage to plant; 0=no damage to plant): 1000 g/ha
Outline: as §1

weeds and/or crops = test: Post-emergence biological efficacy (Table 4); conditions: evaluated after 13 days; for pest or weed control at 250 g/ha / pest or weed control at 1000 g/ha: 312 h
Outline: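 Weeds and crops were grown 14 days in a glasshouse, then sprayed post-emergence with compound formulated in acetone/F50 and diluted in 0.2% Genapol X080 to the final dose. Damage was scored after 13 days on a 0–100 scale, where 100 is total damage.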

AMARE [2] = test: Biological efficacy, post-emergence glasshouse test (Table 2); conditions: 1000 g/ha, after 12 days
Description: (§2) Seeds of a variety of test species were shown in unsterilised compost in small pots. After cultivation for one day (pre-emergence) or seven days (post-emergence) in controlled conditions in the glasshouse (at 24/16° C., day/night; 14 hours light; 65% humidity) the plants were sprayed with 1 mg of the active ingredient, formulated in 466 μl of a acetone/water/Tween 20 (49.75:49.75:0.5) solution, which is equivalent to 1000 g/ha. Once the foliage was dry, the pots were kept in the glasshouse (at 24/16° C., day/night; 14 hours light; 65% humidity), and were watered twice daily. After 12 days the test was evaluated and scored (100=total damage to plant, 0=no damage to plant).

DIGSA [3] = test: as above; conditions: 1000 g/ha, after 12 days
Description: as §2

LOLPE [4] = test: as above; conditions: 1000 g/ha, after 12 days
Description: as §2

STEME [5] = test: as above; conditions: 1000 g/ha, after 12 days
Description: as §2

AMARE [6] = test: Biological efficacy, pre-emergence glasshouse test (Table 2); conditions: 1000 g/ha, after 12 days
Description: as §2

DIGSA [7] = test: as above; conditions: 1000 g/ha, after 12 days
Description: as §2

LOLPE [8] = test: as above; conditions: 1000 g/ha, after 12 days
Description: as §2

STEME [9] = test: as above; conditions: 1000 g/ha, after 12 days
Description: as §2

ABUTH = test: Pre-emergence biological efficacy (Table 3); conditions: after 13 days; for evaluation (100=total damage to plant; 0=no damage to plant): 1000 g/ha
Outline: as §1

STEME [10] = test: Pre-emergence biological efficacy (Table 3); conditions: after 13 days; for evaluation (100=total damage to plant; 0=no damage to plant): 1000 g/ha
Outline: as §1

[11] = Amaranthus retroflexus, 312 h, read-out: evaluation (100=total damage to plant; 0=no damage to plant)
[12] = Echinochloa crus-galli, 312 h, 1000 g/ha, read-out: evaluation (100=total damage to plant; 0=no damage to plant)
[13] = Ipomoea hederacea, 312 h, read-out: evaluation (100=total damage to plant; 0=no damage to plant)
[14] = 312 h, read-out: evaluation (100=total damage to plant; 0=no damage to plant)
[15] = AMAPA, 1000 g/ha, read-out: damage to plant AMAPA (100=total damage; 0=no damage)
[16] = ZEAMX, 1000 g/ha, read-out: damage to plant ZEAMX (100=total damage; 0=no damage)
[17] = Amaranthus retroflexus, AMARE, 1000 g/ha, read-out: damage to plant AMARE (100=total damage; 0=no damage)
[18] = Echinochloa crus-galli, ECHCG, 1000 g/ha, read-out: damage to plant ECHCG (100=total damage; 0=no damage)
[19] = Ipomoea hederacea, IPOHE, 1000 g/ha, read-out: damage to plant IPOHE (100=total damage; 0=no damage)
[20] = Setaria faberi, SETFA, 1000 g/ha, read-out: damage to plant SETFA (100=total damage; 0=no damage)

Row | Compound | pest or weed control at 1000 g/ha (AMAPA) | pest or weed control at 1000 g/ha (AMARE [1]; [11]) | pest or weed control at 1000 g/ha (ECHCG; [12]) | pest or weed control at 1000 g/ha (IPOHE; [13]) | pest or weed control at 1000 g/ha (SETFA) | plant injury at 1000 g/ha (ZEAMX; [14]) | pest or weed control at 1000 g/ha (weeds and/or crops; [16]) | pest or weed control at 1000 g/ha (weeds and/or crops; [17]) | pest or weed control at 1000 g/ha (weeds and/or crops; [18]) | pest or weed control at 1000 g/ha (weeds and/or crops; [19]) | score (100=total damage to plant, 0=no damage to plant) (AMARE [2]) | score (100=total damage to plant, 0=no damage to plant) (DIGSA [3]) | score (100=total damage to plant, 0=no damage to plant) (LOLPE [4]) | score (100=total damage to plant, 0=no damage to plant) (STEME [5]) | score (100=total damage to plant, 0=no damage to plant) (AMARE [6]) | score (100=total damage to plant, 0=no damage to plant) (DIGSA [7]) | score (100=total damage to plant, 0=no damage to plant) (LOLPE [8]) | score (100=total damage to plant, 0=no damage to plant) (STEME [9]) | further results
1 | O=C(O)C(F)(F)c1ccc(OC(F)(F)F)cc1Cl [Compound 1-59, 2-[2-Chloro-4-(trifluoromethoxy)phenyl]-2,2-difluoro-acetic acid] | – | – | – | – | – | – | – | – | – | – | – | – | – | – | – | – | – | – | pest or weed control at 250 g/ha (AMAPA; 250 g/ha): 20%; pest or weed control at 250 g/ha (AMARE [1]; Amaranthus retroflexus, 312 h, 250 g/ha, read-out: evaluation (100=total damage to plant; 0=no damage to plant)): 20%; pest or weed control at 250 g/ha (ECHCG; Echinochloa crus-galli, 312 h, 250 g/ha, read-out: evaluation (100=total damage to plant; 0=no damage to plant)): 0%; pest or weed control at 250 g/ha (IPOHE; Ipomoea hederacea, 312 h, 250 g/ha, read-out: evaluation (100=total damage to plant; 0=no damage to plant)): 10%; pest or weed control at 250 g/ha (SETFA; 250 g/ha): 10%; plant injury at 250 g/ha (ZEAMX; 312 h, 250 g/ha, read-out: evaluation (100=total damage to plant; 0=no damage to plant)): 0%; pest or weed control at 250 g/ha (weeds and/or crops; AMAPA, read-out: damage to plant AMAPA (100=total damage; 0=no damage)): 60%; pest or weed control at 250 g/ha (weeds and/or crops; ZEAMX, read-out: damage to plant ZEAMX (100=total damage; 0=no damage)): 0%; pest or weed control at 250 g/ha (weeds and/or crops; Amaranthus retroflexus, AMARE, read-out: damage to plant AMARE (100=total damage; 0=no damage)): 60%; pest or weed control at 250 g/ha (weeds and/or crops; Echinochloa crus-galli, ECHCG, read-out: damage to plant ECHCG (100=total damage; 0=no damage)): 0%; pest or weed control at 250 g/ha (weeds and/or crops; Ipomoea hederacea, IPOHE, read-out: damage to plant IPOHE (100=total damage; 0=no damage)): 40%; pest or weed control at 250 g/ha (weeds and/or crops; Setaria faberi, SETFA, read-out: damage to plant SETFA (100=total damage; 0=no damage)): 10%
2 | COc1cccc(C(F)(F)C(=O)O)c1F [Compound 1-190, 2,2-Difluoro-2-(2-fluoro-3-methoxy-phenyl)acetic acid] | 80% | 80% | 0% | 90% | 20% | 0% | 10% | 90% | 40% | 60% | – | – | – | – | – | – | – | – | pest or weed control at 1000 g/ha (weeds and/or crops; [15]): 80%; pest or weed control at 1000 g/ha (weeds and/or crops; [20]): 20%
3 | N#Cc1cccc(C(F)(F)C(=O)O)c1F [Compound 1-192, 2-(3-Cyano-2-fluoro-phenyl)-2,2-difluoro-acetic acid] | 70% | 80% | 0% | 70% | 50% | 0% | 20% | 80% | 30% | 70% | – | – | – | – | – | – | – | – | pest or weed control at 1000 g/ha (weeds and/or crops; [15]): 80%; pest or weed control at 1000 g/ha (weeds and/or crops; [20]): 60%
4 | COCc1c(Cl)cccc1C(F)(F)C(=O)O [Compound 1-436, 2-[3-Chloro-2-(methoxymethyl)phenyl]-2,2-difluoro-acetic acid] | 40% | 30% | 0% | 40% | 20% | 0% | – | – | – | – | – | – | – | – | – | – | – | – | –
5 | CCOC(=O)C(F)(F)c1cccc2cccc(C(F)(F)C(=O)OCC)c12 [Compound 3-419, Ethyl 2-[8-(2-ethoxy-1,1-difluoro-2-oxo-ethyl)-1-naphthyl]-2,2-difluoro-acetate] | – | 20% | 0% | 10% | – | 0% | 0% | 20% | 0% | 70% | 80 | 40 | 0 | 70 | 80 | 0 | 0 | 60 | pest or weed control at 1000 g/ha (ABUTH; Abutilon theophrasti, 312 h, read-out: evaluation (100=total damage to plant; 0=no damage to plant)): 30%; pest or weed control at 1000 g/ha (STEME [10]; [14]): 40%; pest or weed control at 1000 g/ha (weeds and/or crops; STEME, 1000 g/ha, read-out: damage to plant STEME (100=total damage; 0=no damage)): 100%; pest or weed control at 1000 g/ha (weeds and/or crops; Abutilon theophrasti, ABUTH, 1000 g/ha, read-out: damage to plant ABUTH (100=total damage; 0=no damage)): 80%
6 | COc1cc(F)c(C(F)(F)C(=O)O)cc1Cl.N [Compound 7-31, Ammonium;2-(5-chloro-2-fluoro-4-methoxy-phenyl)-2,2-difluoro-acetate] | – | – | – | – | – | – | – | – | – | – | 100 | 0 | 0 | 0 | 0 | 0 | 0 | 0 | evaluation (100=total damage to plant; 0=no damage to plant) (ABUTH): 0; evaluation (100=total damage to plant; 0=no damage to plant) (AMARE [1]): 0; evaluation (100=total damage to plant; 0=no damage to plant) (IPOHE): 0; evaluation (100=total damage to plant; 0=no damage to plant) (STEME [10]): 0; evaluation (100=total damage to plant; 0=no damage to plant) (ZEAMX): 0; damage to plant ABUTH (100=total damage; 0=no damage) (weeds and/or crops; ABUTH, 1000 g/ha): 0; damage to plant AMARE (100=total damage; 0=no damage) (weeds and/or crops; AMARE, 1000 g/ha): 0; damage to plant IPOHE (100=total damage; 0=no damage) (weeds and/or crops; IPOHE, 1000 g/ha): 0; damage to plant STEME (100=total damage; 0=no damage) (weeds and/or crops; STEME, 1000 g/ha): 0; damage to plant ZEAMX (100=total damage; 0=no damage) (weeds and/or crops; ZEAMX, 1000 g/ha): 20
7 | N.N#Cc1cccc(C(F)(F)C(=O)O)c1Cl [Compound 7-231, Ammonium;2-(2-chloro-3-cyano-phenyl)-2,2-difluoro-acetate] | – | – | – | – | – | – | – | – | – | – | 90 | 70 | 0 | 80 | 90 | 80 | 40 | 100 | evaluation (100=total damage to plant; 0=no damage to plant) (ABUTH): 90; evaluation (100=total damage to plant; 0=no damage to plant) (AMARE [1]): 90; evaluation (100=total damage to plant; 0=no damage to plant) (ECHCG; 1000 g/ha): 10; evaluation (100=total damage to plant; 0=no damage to plant) (IPOHE): 80; evaluation (100=total damage to plant; 0=no damage to plant) (STEME [10]): 100; evaluation (100=total damage to plant; 0=no damage to plant) (ZEAMX): 50; damage to plant ABUTH (100=total damage; 0=no damage) (weeds and/or crops; ABUTH, 1000 g/ha): 90; damage to plant AMARE (100=total damage; 0=no damage) (weeds and/or crops; AMARE, 1000 g/ha): 90; damage to plant ECHCG (100=total damage; 0=no damage) (weeds and/or crops; ECHCG, 1000 g/ha): 10; damage to plant IPOHE (100=total damage; 0=no damage) (weeds and/or crops; IPOHE, 1000 g/ha): 80; damage to plant STEME (100=total damage; 0=no damage) (weeds and/or crops; STEME, 1000 g/ha): 100; damage to plant ZEAMX (100=total damage; 0=no damage) (weeds and/or crops; ZEAMX, 1000 g/ha): 30

From patent US20240251792A1, “WEED CONTROL METHOD” (SYNGENTA CROP PROTECTION AG, priority 2021, published 2024)
